Data set [1] deals with Plutella xylostella (Diamond back moth) ryanodine receptor, containing the G4946E resistance mutation. The data set is described as follows: In vitro calcium fluorescence assay (Fluo-8 NW, FDSS) in human embryonic kidney cells expressing the ryanodine receptor. Format: cell-based. Conditions: table; EC50 (compound)/EC50 (cyantraniliprole); G4946E RyR in HEK cells. The gist of the method: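 Fluo-8 NW-loaded cells, compounds at 10 rates, intracellular calcium fluorescence read on FDSS. EC50 from dose-response curves, normalized to in-assay cyantraniliprole as REC50 = EC50(compound)/EC50(cyantraniliprole).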

Structures are written as SMILES.

`Cc1cc(Cl)cc(C(N)=O)c1NC(=O)c1cc(C2(F)CC2)nn1-c1ncccc1Cl` came in with a melting point of 225 to 230 °C.

`Cc1cc(Br)cc(C(N)=O)c1NC(=O)c1cc(I)nn1-c1ncccc1Cl` [Compound P39, N-(4-bromo-2-carbamoyl-6-methyl-phenyl)-2-(3-chloro-2-pyridyl)-5-iodo-pyrazole-3-carboxamide]: the melting point is over 250 °C. The compound `Cc1cc(I)cc(C(N)=O)c1NC(=O)c1cc(C(F)F)nn1-c1ncccc1Cl` showed a melting point of 155 to 160 °C. In turn, `COc1cc(C(=O)Nc2c(Cl)cc(Br)cc2C(N)=O)n(-c2ncccc2Cl)n1` [Compound P47, N-(4-bromo-2-carbamoyl-6-chloro-phenyl)-2-(3-chloro-2-pyridyl)-5-methoxy-pyrazole-3-carboxamide] came in with a melting point of 160 to 165 °C. The “REC50 (Compound of the invention)” value in data set [1] was 0.61.

For the compound `Cc1cc(C#N)cc(C(N)=O)c1NC(=O)c1cc(COCc2ccc(Cl)cc2)nn1-c1ncccc1Cl` [Compound P12, N-(2-carbamoyl-4-cyano-6-methyl-phenyl)-5-[(4-chlorophenyl)methoxymethyl]-2-(3-chloro-2-pyridyl)pyrazole-3-carboxamide], the melting point was in the range of 109 to 112 °C.

`Cc1cc(Cl)cc(C(N)=O)c1NC(=O)c1cc(COCc2ccc(Cl)cc2)nn1-c1ncccc1Cl` [Compound P5, N-(2-carbamoyl-4-chloro-6-methyl-phenyl)-5-[(4-chlorophenyl)methoxymethyl]-2-(3-chloro-2-pyridyl)pyrazole-3-carboxamide] gave a melting point of 174 to 176 °C. For the same compound, the “REC50 (Compound of the invention)” value in data set [1] is 0.31. Consider `COc1cc(C(=O)Nc2c(Br)cc(Cl)cc2C(N)=O)n(-c2ncccc2Cl)n1` [Compound P55, N-(2-bromo-6-carbamoyl-4-chloro-phenyl)-2-(3-chloro-2-pyridyl)-5-methoxy-pyrazole-3-carboxamide], for which the melting point lay within 205 to 210 °C.

Take `CSCc1cc(C(=O)Nc2c(C)cc(Cl)cc2C(N)=O)n(-c2ncccc2Cl)n1` [Compound P79, N-(2-carbamoyl-4-chloro-6-methyl-phenyl)-2-(3-chloro-2-pyridyl)-5-(methylsulfanylmethyl)pyrazole-3-carboxamide]: the melting point is 175 to 180 °C. The same measure, in the same setting: the value for `NC(=O)c1cc(Br)cc(Cl)c1NC(=O)c1cc(Cn2cc(C(F)(F)F)nn2)nn1-c1ncccc1Cl` was 135 to 140 °C; that for `Cc1cc(Cl)cc(C(N)=O)c1NC(=O)c1cc(C2(C#N)CC2)nn1-c1ncccc1Cl` [Compound P72, N-(2-carbamoyl-4-chloro-6-methyl-phenyl)-2-(3-chloro-2-pyridyl)-5-(1-cyanocyclopropyl)pyrazole-3-carboxamide] was 225 to 230 °C. As for `COc1cc(C(=O)Nc2c(C)cc(Br)cc2C(N)=O)n(-c2ncccc2Cl)n1` [Compound P45, N-(4-bromo-2-carbamoyl-6-methyl-phenyl)-2-(3-chloro-2-pyridyl)-5-methoxy-pyrazole-3-carboxamide], the melting point was in the range of 210 to 215 °C. Further, the “REC50 (Compound of the invention)” value in data set [1] was 0.24. As for `COc1cc(C(=O)Nc2c(Cl)cc(Cl)cc2C(N)=O)n(-c2ncccc2Cl)n1` [Compound P59, N-(2-carbamoyl-4,6-dichloro-phenyl)-2-(3-chloro-2-pyridyl)-5-methoxy-pyrazole-3-carboxamide], the melting point lay in the range of 155 to 160 °C. In addition, the “REC50 (Compound of the invention)” value in data set [1] is 0.62. `COCc1cc(C(=O)Nc2c(C)cc(Cl)cc2C(N)=O)n(-c2ncccc2Cl)n1` had a melting point of 225 to 230 °C. With `CCc1cc(C(=O)Nc2c(C)cc(Cl)cc2C(N)=O)n(-c2ncccc2Cl)n1` [Compound P75, N-(2-carbamoyl-4-chloro-6-methyl-phenyl)-2-(3-chloro-2-pyridyl)-5-ethyl-pyrazole-3-carboxamide], the melting point lay in the range of 245 to 250 °C. In data set [1], the “REC50 (Compound of the invention)” value amounted to 0.69.

The melting point is the temperature, or range, at which the solid turns liquid.

For the origin of these results see US20240308988A1, “Method For Controlling Diamide Resistant Pests and Compounds Therefor” (priority 2021, published 2024).
